The subject of series [1] is STZ-induced diabetic rats. The following applies: cited from earlier work.
Series [2] deals with chronic renal failure (5/6Nx) rats. Particulars: for Systolic blood pressure: tail-cuff. On the procedure: Male Wistar rats of 8 weeks of age were used in the experiment. A Rat was anesthetized with petobarbital and ⅔ of the left kidney was cut off, and one week after the right kidney was removed completely. Two weeks after the ⅚ nephrectomy, systolic blood pressure (SBP) was measured by a tail-cuff method, and the urine was collected in a metabolic cage for 24 hours to measure the urinary protein excretion. Rats were divided into 3 groups (each group: n=9) so that no difference occurred between the respective groups. Thereafter, a solvent (0.5% MC) was orally administered to the ⅚Nx-Cont. group at a dose of 5 ml/kg over 8 weeks. […] Similarly, to the ⅚Nx-Ena. group was administered 10 mg/kg/day of enalapril maleate dissolved in a solvent (0.5% MC). On the other hand, the solvent (0.5% MC) alone was orally administered to the abdominal-sectioned rats as a control group (Sham). Every 2 weeks, the urine was collected for 24 hours to measure the urinary protein excretion. Additionally, every 4 weeks, SBP was measured to examine the effect on the blood pressure.
The results were indicated by the mean±error. In comparison between the Sham group and the ⅚Nx-Cont. group, a t-test was made without correspondence, and when the significant level is less than 5%, it is considered as a significant difference. In comparison between the ⅚Nx rat-drug groups, multiple comparison (Dunnett's test) was made respectively without correspondence following the variance analysis of one-way classification. When the significant level is less than 5%, it is considered as a significant difference.

Series [3] has as its system rat's cultured mesangial cells. Kind of series: Effect of ET on the growth and hypertrophy of rat's cultured mesangial cells. It is filed as cell-based. The following applies: for growth and hypertrophy of rat's cultured mesangial cells: depending on the concentration of 10^−12 to 10^−7M; for concentration of the maximum reaction (growth and hypertrophy): rat's cultured mesangial cells. The protocol:
In measurement of the hypertrophy activity, the cells used in the measurement of the cell growth activity using an Alamar Blue reagent were washed 3 times with a phosphate buffer, to which cells was added a direct protein-determining reagent (BioRad) to measure the absorbance at 595 nm. The protein content was calculated from the analytical curve. The protein content per the unit cell number was given as the hypertrophy activity from the cell number obtained by measurement of the growth activity.
The results were indicated by the mean±error.

Series [4] relates to diabetic rats induced by streptozotocin (STZ). As to the kind of experiment: Effect on the blood parameter and urinary parameter in diabetic rats induced by streptozotocin (STZ). The following applies: for Blood glucose level: enalapril maleate 10 mg/kg p.o. once a day. Type of series: in vivo, Wistar (Crj) rats. On the procedure: Wistar (Crj) rats of 9 weeks of age were divided into 5 groups so that there was no bias in urinary albumin excretion. To the 4 groups of the rats was administered intravenously STZ (50 mg/kg). […] After the lapse of 2, 4 and 6 weeks from the start of administration, urine was collected for 24 hours in a metabolic cage to measure a urinary parameter. The blood was collected from the tail vein after 2 and 4 weeks and from the abdominal aorta under anesthesia after 6 weeks to measure a blood parameter.
The results were indicated by the mean±error. In comparison between the Sham group and the STZ-Cont. group, a t-test was made without correspondence, and when the significant level is less than 5%, it is considered as a significant difference. In comparison between the STZ-dose groups of rats, multiple comparison (Dunnett's test) was made respectively without correspondence following the variance analysis of one-way classification. When the significant level is less than 5%, it is considered as a significant difference.

The mark [5] stands for this setting: continuously injected intraperitoneally.
Where [6] appears, read: 5/6Nx rats, enalapril maleate 10 mg/kg/day p.o., 0 week.
[7] abbreviates: 5/6Nx rats, enalapril maleate 10 mg/kg/day p.o., 4 weeks.
The mark [8] stands for this setting: 5/6Nx rats, enalapril maleate 10 mg/kg/day p.o., 8 weeks.
[9] abbreviates: enalapril maleate 10 mg/kg p.o.
Where [10] appears, read: enalapril maleate 10 mg/kg p.o., 4 weeks.

Structures can show the parent of a compound that is named as a salt. Where two headings read alike, the source gives them in different places. Bridge positions count the residues as written; N and C are the ends. Ends that are not written are not given here.

For `COc1cc(OC)nc(O[C@H](C(=O)O)C(OC)(c2ccccc2)c2ccccc2)n1` [darusentan], the blood triglyceride level entry in series [1] (100 mg/kg, p.o., decreased only in comparison with control group) was “decreases the blood triglyceride level”. The Blood glucose level entry in series [1] (100 mg/kg, p.o.) is recorded as “does not change the blood glucose level”. In addition, the microalbuminuria entry in series [1] (100 mg/kg/day for 160 days) was “has a tendency to reduce microalbuminuria”.

With FR139317, the plasma glucose level result in series [1] is listed as “do not change the plasma glucose level”. In addition, in series [1] (setting [5]), the excretion of microalbuminuria result is on record as “reduces excretion of microalbuminuria” and the “gene expression of the extracellular matrix of the glomerulus” value is “inhibits gene expression of the extracellular matrix of the glomerulus”.

For `COc1ccccc1Oc1c(NS(=O)(=O)C=Cc2ccccc2)nc(-c2ncccn2)nc1OC` [Compound 1, N-[6-Methoxy-5-(2-methoxyphenoxy)-2-(pyrimidin-2-yl)pyrimidin-4-yl]-2-phenylethenesulfonamide], in series [2] (rat, in vivo, po, 1 mg/kg/day), the “death cases (mortality in renal dysfunction cases)” value was “no death was observed”.

On to “ET-3: Endothelin iso-peptide, endogenous physiologically active peptide consisting of 21 amino acids (CTCFTYKDKECVYYCHLDIIW; disulfide 1-15, 3-11; ends not checked; UniProt P14138 97-117, looked up)”, for which, in series [3], the “growth and hypertrophy of rat's cultured mesangial cells” value is “promoted the growth and hypertrophy”; the “concentration of the maximum reaction (growth and hypertrophy)” value was 10^−8 M.

For “ET-1: Endothelin iso-peptide, endogenous physiologically active peptide consisting of 21 amino acids (CSCSSLMDKECVYFCHLDIIW; disulfide 1-15, 3-11; ends not checked; UniProt P05305 53-73, looked up)”, in series [3], the “growth and hypertrophy of rat's cultured mesangial cells” value was “promoted the growth and hypertrophy”; the “concentration of the maximum reaction (growth and hypertrophy)” value is 10^−8 M.

For the compound `CCOC(=O)[C@H](CCc1ccccc1)N[C@@H](C)C(=O)N1CCC[C@H]1C(=O)O` [Ena., enalapril maleate], the “hypotensive effect (SBP)” value in series [2] (5/6Nx rats, enalapril maleate 10 mg/kg/day p.o.) is listed as “a hypotensive effect was markedly recognized”. The Urinary protein excretion in series [2] (setting [6]) came out at 36.9 ± 4.7 mg/day; in series [2] (5/6Nx rats, enalapril maleate 10 mg/kg/day p.o., 2 weeks), 45.5 ± 10.5 mg/day; in series [2] (setting [7]), 78.4 ± 15.3 mg/day; in series [2] (5/6Nx rats, enalapril maleate 10 mg/kg/day p.o., 6 weeks) it was 165.1 ± 28.1 mg/day; in series [2] (setting [8]), 261.2 ± 43.2 mg/day. Also, the values for the Systolic blood pressure in series [2] (setting [6]), in series [2] (setting [7]) and in series [2] (setting [8]) were 136 ± 4 mmHg, 129 ± 8 mmHg and 124 ± 6 mmHg, respectively. Also, the “death cases (mortality in renal dysfunction cases)” value was 2 in series [2] (5/6Nx rats, enalapril maleate 10 mg/kg/day p.o., 9 cases per group) and “two death cases” in series [2] (5/6Nx rats, enalapril maleate 10 mg/kg/day p.o., 9 cases per group, listed as enalapril). Moreover, the “inhibition of elevation of creatinine clearance (Ccr)” value in series [4] (setting [9]) is listed as “there was no tendency that elevation of Ccr was inhibited”. In addition, the “urinary albumin excretion (UAE) change” value in series [4] (setting [9]) was “no UAE reduction was observed”. Moreover, the Blood glucose level in series [4] (2 weeks) amounted to 403.0 ± 13.0 mg/dL; in series [4] (4 weeks), 393.2 ± 17.6 mg/dL; in series [4] (6 weeks), 394.3 ± 9.6 mg/dL. Moreover, the Urinary albumin excretion in series [4] (enalapril maleate 10 mg/kg p.o., 0 week) is 0.46 ± 0.04 mg/day; in series [4] (enalapril maleate 10 mg/kg p.o., 2 weeks), 0.91 ± 0.13 mg/day; in series [4] (setting [10]), 0.65 ± 0.14 mg/day; in series [4] (enalapril maleate 10 mg/kg p.o., 6 weeks), 1.27 ± 0.18 mg/day. In series [4] (setting [10]), the Blood cholesterol level is 148.8 ± 11.2 mg/dL. Further, the blood triglyceride level in series [4] (setting [10]) was 407.0 ± 35.7 mg/dL.

For the compound `COc1ccccc1Oc1c(NS(=O)(=O)c2ccc(C(C)(C)C)cc2)nc(-c2ncccn2)nc1OCCO` [bosentan], the plasma glucose level entry in series [1] is “do not change the plasma glucose level”.

(Values after US20040097529A1, “Novel use of arylethene sulfonamide derivative” (priority 2001, published 2004).)
